Laboratory results as given in US11981658B2, “Substituted aminopyridine compounds as EGFR inhibitors” (YUHAN CORPORATION, priority 2021, dated 2024).
Where two headings read alike, the source gives them in different places.

Legend:
EGFR L858R/C797S = EGFR L858R/C797S (Homo sapiens, UniProt P00533, C797S/L858R); test: Biochemical EGFR kinase inhibition assay (Lance Ultra TR-FRET), double mutant L858R/C797S
Procedure, shortened: (§1)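 Enzyme reactions lasted 1 hour at room temperature with test compounds between 0.003 and 10 μM, followed by 10 mM EDTA quench.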

EGFR Del19/T790M/C797S = EGFR Del19/T790M/C797S (Homo sapiens, UniProt P00533, C797S/DEL746-750/T790M); test: Biochemical EGFR kinase inhibition assay (Lance Ultra TR-FRET), triple mutant del19/T790M/C797S
Procedure, shortened: as §1

EGFR Del19/C797S = EGFR Del19/C797S (Homo sapiens, UniProt P00533, C797S/DEL746-750); test: Biochemical EGFR kinase inhibition assay (Lance Ultra TR-FRET), double mutant del19/C797S
EGFR Del19/C797S, sequence (P00533 with tags, fused parts or gaps DEL746-750/C797S): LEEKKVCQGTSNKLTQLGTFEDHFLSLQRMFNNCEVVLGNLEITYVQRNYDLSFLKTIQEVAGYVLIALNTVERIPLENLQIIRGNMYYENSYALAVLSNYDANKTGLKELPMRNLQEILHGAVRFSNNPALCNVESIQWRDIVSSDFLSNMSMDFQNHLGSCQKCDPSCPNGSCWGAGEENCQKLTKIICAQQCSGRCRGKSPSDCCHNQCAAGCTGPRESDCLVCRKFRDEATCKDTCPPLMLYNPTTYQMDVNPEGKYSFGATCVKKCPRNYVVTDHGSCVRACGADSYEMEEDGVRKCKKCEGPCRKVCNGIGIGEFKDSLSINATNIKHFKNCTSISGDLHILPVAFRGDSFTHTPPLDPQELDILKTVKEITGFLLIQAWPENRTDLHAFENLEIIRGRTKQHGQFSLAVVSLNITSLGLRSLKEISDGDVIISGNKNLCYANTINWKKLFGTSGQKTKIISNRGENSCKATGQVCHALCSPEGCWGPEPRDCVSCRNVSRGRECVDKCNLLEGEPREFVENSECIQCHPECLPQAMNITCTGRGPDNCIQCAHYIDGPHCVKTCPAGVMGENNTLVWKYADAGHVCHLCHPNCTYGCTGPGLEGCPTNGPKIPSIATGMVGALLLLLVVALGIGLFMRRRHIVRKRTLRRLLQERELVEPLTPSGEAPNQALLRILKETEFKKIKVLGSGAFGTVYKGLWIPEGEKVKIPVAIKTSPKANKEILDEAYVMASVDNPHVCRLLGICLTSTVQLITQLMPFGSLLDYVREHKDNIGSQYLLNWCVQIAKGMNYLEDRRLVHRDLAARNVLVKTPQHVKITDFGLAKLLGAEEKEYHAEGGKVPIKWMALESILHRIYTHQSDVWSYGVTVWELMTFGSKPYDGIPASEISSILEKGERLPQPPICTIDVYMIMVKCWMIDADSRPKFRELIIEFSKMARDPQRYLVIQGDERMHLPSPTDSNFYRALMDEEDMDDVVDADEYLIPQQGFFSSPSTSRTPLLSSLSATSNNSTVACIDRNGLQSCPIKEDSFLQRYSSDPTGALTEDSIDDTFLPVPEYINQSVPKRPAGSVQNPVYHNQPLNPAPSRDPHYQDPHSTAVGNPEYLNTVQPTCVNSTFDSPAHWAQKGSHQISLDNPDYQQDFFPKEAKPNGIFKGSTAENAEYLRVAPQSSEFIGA
Procedure, shortened: as §1

EGFR L858R/T790M/C797S = EGFR L858R/T790M/C797S (Homo sapiens, UniProt P00533, C797S/L858R/T790M); test: Biochemical EGFR kinase inhibition assay (Lance Ultra TR-FRET), triple mutant L858R/T790M/C797S
EGFR L858R/T790M/C797S, sequence (P00533 25-1210 T790M/C797S/L858R): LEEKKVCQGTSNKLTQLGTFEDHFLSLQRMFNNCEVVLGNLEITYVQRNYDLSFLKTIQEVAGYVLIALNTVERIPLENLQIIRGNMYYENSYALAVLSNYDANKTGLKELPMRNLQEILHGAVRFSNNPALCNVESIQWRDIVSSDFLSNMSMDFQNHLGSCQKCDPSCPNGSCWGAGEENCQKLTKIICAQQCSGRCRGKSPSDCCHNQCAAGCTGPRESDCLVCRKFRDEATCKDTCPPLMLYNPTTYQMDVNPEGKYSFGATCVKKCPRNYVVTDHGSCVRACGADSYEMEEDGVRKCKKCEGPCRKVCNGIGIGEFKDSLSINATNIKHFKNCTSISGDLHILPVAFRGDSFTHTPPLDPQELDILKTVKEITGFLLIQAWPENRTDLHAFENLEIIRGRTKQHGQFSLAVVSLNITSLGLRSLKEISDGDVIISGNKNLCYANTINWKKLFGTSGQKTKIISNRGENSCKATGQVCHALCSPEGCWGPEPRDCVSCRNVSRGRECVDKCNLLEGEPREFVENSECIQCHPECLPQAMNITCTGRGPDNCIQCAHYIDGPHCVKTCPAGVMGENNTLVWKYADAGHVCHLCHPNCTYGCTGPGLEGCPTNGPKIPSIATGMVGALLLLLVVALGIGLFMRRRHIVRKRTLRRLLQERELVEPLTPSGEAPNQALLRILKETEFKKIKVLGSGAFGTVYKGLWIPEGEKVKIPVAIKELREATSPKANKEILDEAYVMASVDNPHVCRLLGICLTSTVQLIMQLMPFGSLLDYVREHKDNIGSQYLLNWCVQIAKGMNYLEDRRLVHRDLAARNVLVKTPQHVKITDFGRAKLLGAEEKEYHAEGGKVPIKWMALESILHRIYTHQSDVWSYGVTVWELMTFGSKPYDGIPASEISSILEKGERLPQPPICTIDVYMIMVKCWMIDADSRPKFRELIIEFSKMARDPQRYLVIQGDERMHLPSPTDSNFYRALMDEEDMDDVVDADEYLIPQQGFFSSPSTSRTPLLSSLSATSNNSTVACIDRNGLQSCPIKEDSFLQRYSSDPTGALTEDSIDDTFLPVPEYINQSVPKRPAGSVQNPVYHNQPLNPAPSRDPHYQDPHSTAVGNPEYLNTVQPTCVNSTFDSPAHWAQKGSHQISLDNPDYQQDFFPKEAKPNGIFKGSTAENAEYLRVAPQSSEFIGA
Procedure, shortened: as §1

EGFR wildtype (WT) = EGFR wildtype (WT) (Homo sapiens, UniProt P00533); test: Biochemical EGFR kinase inhibition assay (Lance Ultra TR-FRET), wildtype
EGFR wildtype (WT), sequence (P00533 25-1210): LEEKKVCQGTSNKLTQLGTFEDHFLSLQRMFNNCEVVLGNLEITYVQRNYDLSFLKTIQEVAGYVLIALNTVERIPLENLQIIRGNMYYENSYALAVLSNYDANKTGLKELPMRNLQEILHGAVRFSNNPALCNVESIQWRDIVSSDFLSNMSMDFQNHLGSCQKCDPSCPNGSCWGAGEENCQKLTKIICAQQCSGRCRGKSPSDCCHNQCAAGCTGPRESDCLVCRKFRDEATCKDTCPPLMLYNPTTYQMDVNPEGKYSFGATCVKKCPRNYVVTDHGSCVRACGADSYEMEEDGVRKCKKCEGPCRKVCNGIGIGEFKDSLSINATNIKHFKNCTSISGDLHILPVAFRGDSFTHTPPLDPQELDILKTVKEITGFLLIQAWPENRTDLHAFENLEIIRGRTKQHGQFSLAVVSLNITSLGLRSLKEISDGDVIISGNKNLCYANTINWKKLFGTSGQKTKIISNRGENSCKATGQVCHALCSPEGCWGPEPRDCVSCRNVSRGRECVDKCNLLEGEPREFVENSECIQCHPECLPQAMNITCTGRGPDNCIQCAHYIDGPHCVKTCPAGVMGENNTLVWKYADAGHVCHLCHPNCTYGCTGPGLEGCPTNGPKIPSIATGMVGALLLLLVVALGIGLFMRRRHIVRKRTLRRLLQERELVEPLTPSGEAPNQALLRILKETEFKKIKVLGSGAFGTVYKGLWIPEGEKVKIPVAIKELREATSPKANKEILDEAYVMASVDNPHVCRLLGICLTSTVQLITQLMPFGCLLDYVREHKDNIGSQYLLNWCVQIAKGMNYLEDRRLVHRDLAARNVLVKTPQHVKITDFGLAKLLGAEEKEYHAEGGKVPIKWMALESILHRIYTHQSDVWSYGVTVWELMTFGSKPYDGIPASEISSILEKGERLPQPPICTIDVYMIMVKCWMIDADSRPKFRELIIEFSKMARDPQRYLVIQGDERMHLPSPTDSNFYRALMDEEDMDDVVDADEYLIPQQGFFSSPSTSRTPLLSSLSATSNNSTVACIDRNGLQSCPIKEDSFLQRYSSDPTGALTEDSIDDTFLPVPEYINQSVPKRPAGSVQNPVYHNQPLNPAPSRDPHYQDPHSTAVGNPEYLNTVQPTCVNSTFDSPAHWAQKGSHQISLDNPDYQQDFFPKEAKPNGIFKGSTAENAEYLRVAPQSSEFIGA
Procedure, shortened: as §1

[1] = ATP at Km, read-out: IC50 L858R/C797S (nM), Km ATP
[2] = IC50 L858R/C797S (nM), 100 μM ATP
[3] = ATP at Km, read-out: IC50 Del19/T790M/C797S (nM), Km ATP
[4] = IC50 Del19/T790M/C797S (nM), 100 μM ATP
[5] = ATP at Km, read-out: IC50 Del19/C797S (nM), Km ATP
[6] = IC50 Del19/C797S (nM), 100 μM ATP
[7] = ATP at Km, read-out: IC50 L858R/T790M/C797S (nM), Km ATP
[8] = IC50 L858R/T790M/C797S (nM), 100 μM ATP
[9] = ATP at Km, read-out: IC50 WT (nM), Km ATP
[10] = read-out: IC50 L858R/C797S (nM), 100 μM ATP
[11] = read-out: IC50 Del19/T790M/C797S (nM), 100 μM ATP
[12] = read-out: IC50 Del19/C797S (nM), 100 μM ATP
[13] = read-out: IC50 L858R/T790M/C797S (nM), 100 μM ATP
[14] = read-out: IC50 WT (nM), 100 μM ATP

EGFR L858R/C797S, sequence (P00533 25-1210 C797S/L858R): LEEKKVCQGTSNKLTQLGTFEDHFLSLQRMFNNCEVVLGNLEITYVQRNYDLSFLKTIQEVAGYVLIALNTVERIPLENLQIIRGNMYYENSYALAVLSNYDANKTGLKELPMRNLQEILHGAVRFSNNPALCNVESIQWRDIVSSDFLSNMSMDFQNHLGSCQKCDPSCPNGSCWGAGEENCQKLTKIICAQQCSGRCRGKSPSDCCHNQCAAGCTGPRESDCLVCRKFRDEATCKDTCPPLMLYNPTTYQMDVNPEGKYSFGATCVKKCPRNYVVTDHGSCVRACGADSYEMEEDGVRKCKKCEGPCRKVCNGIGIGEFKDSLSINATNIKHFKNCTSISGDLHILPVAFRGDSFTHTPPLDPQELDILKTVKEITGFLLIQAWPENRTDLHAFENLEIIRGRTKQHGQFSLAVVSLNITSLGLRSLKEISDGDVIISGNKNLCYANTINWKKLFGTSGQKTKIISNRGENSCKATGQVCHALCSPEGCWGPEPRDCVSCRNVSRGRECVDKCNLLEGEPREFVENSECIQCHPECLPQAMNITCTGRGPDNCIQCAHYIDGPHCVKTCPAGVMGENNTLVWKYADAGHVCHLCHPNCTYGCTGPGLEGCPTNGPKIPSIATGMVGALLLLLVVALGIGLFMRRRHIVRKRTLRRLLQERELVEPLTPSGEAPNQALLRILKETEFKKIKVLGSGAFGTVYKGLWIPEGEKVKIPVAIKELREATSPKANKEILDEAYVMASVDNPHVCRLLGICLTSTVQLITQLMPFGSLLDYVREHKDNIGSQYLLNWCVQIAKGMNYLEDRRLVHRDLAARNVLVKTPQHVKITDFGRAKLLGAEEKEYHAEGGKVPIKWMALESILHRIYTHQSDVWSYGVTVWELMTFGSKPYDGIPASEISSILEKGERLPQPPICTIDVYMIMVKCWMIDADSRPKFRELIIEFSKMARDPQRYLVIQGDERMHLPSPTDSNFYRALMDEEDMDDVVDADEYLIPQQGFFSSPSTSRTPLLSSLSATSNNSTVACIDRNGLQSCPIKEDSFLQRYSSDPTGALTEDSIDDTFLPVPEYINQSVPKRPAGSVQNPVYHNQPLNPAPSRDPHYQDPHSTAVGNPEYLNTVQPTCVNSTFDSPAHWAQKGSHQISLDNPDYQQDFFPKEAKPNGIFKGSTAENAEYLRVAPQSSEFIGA

Row | Structure (SMILES) | IC50 (EGFR L858R/C797S; [1]) [nM] | IC50 (EGFR L858R/C797S; [2]) [nM] | IC50 (EGFR Del19/T790M/C797S; [3]) [nM] | IC50 (EGFR Del19/T790M/C797S; [4]) [nM] | IC50 (EGFR Del19/C797S; [5]) [nM] | IC50 (EGFR Del19/C797S; [6]) [nM] | IC50 (EGFR L858R/T790M/C797S; [7]) [nM] | IC50 (EGFR L858R/T790M/C797S; [8]) [nM] | IC50 (EGFR wildtype (WT); [9]) [nM] | IC50 (EGFR wildtype (WT); IC50 WT (nM), 100 μM ATP) [nM] | IC50 (EGFR L858R/C797S; [10]) [nM] | IC50 (EGFR Del19/T790M/C797S; [11]) [nM] | IC50 (EGFR Del19/C797S; [12]) [nM] | IC50 (EGFR L858R/T790M/C797S; [13]) [nM] | IC50 (EGFR wildtype (WT); [14]) [nM]
1 | Cc1cnc(C#Cc2cnc(Nc3ccnc(-c4cnn(S(=O)(=O)C5CC5)c4)n3)cc2N[C@@H]2CCC[C@H](O)C2)cn1 [Example 170, (1 S,3R)-3-((2-((2-(1-(Cyclopropylsulfonyl)-1H-pyrazol-4-yl)pyrimidin-4-yl)amino)-5-((5-methylpyrazin-2-yl)ethynyl)pyridin-4-yl)amino)cyclohexan-1-ol] | 23.8 | 316 | 0.9 | 1 | 4.4 | 19.9 | 0.6 | 5.7 | 286 | > 10000 |  |  |  |  | 
2 | O=S(=O)(C1CC1)n1cc(-c2nccc(Nc3cc(N[C@H]4CC[C@@H](O)CC4)c(C#Cc4ccc(NCCN5CCOCC5)cc4)cn3)n2)cn1 [Example 172, (1s,4s)-4-((2-((2-(1-(Cyclopropylsulfonyl)-1H-pyrazol-4-yl)pyrimidin-4-yl)amino)-5-((4-((2-morpholinoethyl)amino)phenyl)ethynyl)pyridin-4-yl)amino)cyclohexan-1-ol] | 11.5 |  | 4.6 |  | 14.1 |  | 4.8 |  | 68.4 |  | 124 | 6.9 | 32.4 | 14.5 | > 10000
3 | O=S(=O)(C1CC1)n1cc(-c2nccc(Nc3cc(N[C@H]4CC[C@@H](O)CC4)c(C#CC4(O)CCCCC4)cn3)n2)cn1 [Example 174, 1-((6-((2-(1-(Cyclopropylsulfonyl)-1H-pyrazol-4-yl)pyrimidin-4-yl)amino)-4-(((1 s, 4s)-4-hydroxycyclohexyl)amino)pyridin-3-yl)ethynyl)cyclohexan-1-ol] | 30.5 | 283 | 0.5 | 0.9 | 11 | 10.8 | 1.2 | 2.1 | 150 | > 10000 |  |  |  |  | 
4 | CC1(CO)CCN(c2cc(Nc3ccnc(-c4cnn(S(=O)(=O)C5CC5)c4)n3)ncc2C#CC2(O)CCCCC2)CC1 [Example 175, 1-((6-((2-(1-(Cyclopropylsulfonyl)-1H-pyrazol-4-yl)pyrimidin-4-yl)amino)-4-(4-(hydroxymethyl)-4-methylpiperidin-1-yl)pyridin-3-yl)ethynyl)cyclohexan-1-ol] | 33.5 | 333 | 1.2 | 1.4 | 13.3 | 17.2 | 3.6 | 3.6 | 131 | > 10000 |  |  |  |  | 
5 | O=S(=O)(C1CC1)n1cc(-c2nccc(Nc3cc(N[C@H]4CC[C@@H](O)CC4)c(C#CC4(O)CCCC4)cn3)n2)cn1 [Example 176, (1s,4s)-4-((2-((2-(1-(Cyclopropylsulfonyl)-1H-pyrazol-4-yl)pyrimidin-4-yl)amino)-5-((1-hydroxycyclopentyl)ethynyl)pyridin-4-yl)amino)cyclohexan-1-ol] | 14.2 | 104 | 0.5 | 0.4 | 3 | 3.6 | 0.3 | 0.8 | 40.1 | > 10000 |  |  |  |  | 
6 | CN1CCC(C#Cc2cnc(Nc3ccnc(-c4cnn(S(=O)(=O)C5CC5)c4)n3)cc2N2CCC(C)(CO)CC2)C1 (centres unmarked) [Example 180, (1-(2-((2-(1-(Cyclopropylsulfonyl)-1H-pyrazol-4-yl)pyrimidin-4-yl)amino)-5-((1-methylpyrrolidin-3-yl)ethynyl)pyridin-4-yl)-4-methylpiperidin-4-yl)methanol] | 0.4 | 2.7 | 0.2 | 0.1 | 0.5 | 0.3 | 0.1 | 0.1 | 2.8 | 1100 |  |  |  |  | 
7 | CN1CCC(C#Cc2cnc(Nc3ccnc(-c4cnn(S(=O)(=O)C5CC5)c4)n3)cc2NC2CCC(O)CC2)C1 (centres unmarked) [Example 181, (1s,4s)-4-((2-((2-(1-(Cyclopropylsulfonyl)-1H-pyrazol-4-yl)pyrimidin-4-yl)amino)-5-((1-methylpyrrolidin-3-yl)ethynyl)pyridin-4-yl)amino)cyclohexan-1-ol] | 0.6 | 6 | 0.1 | 0.1 | 0.7 | 0.6 | 0.05 | 0.1 | 6.1 | 2920 |  |  |  |  | 
8 | CC1(C#Cc2cnc(Nc3ccnc(-c4cnn(S(=O)(=O)C5CC5)c4)n3)cc2N2CCC(C)(CO)CC2)CCOCC1 [Example 183, (1-(2-((2-(1-(Cyclopropylsulfonyl)-1H-pyrazol-4-yl)pyrimidin-4-yl)amino)-5-((4-methyltetrahydro-2H-pyran-4-yl)ethynyl)pyridin-4-yl)-4-methylpiperidin-4-yl)methanol] | 26.9 | 400 | 2 | 1.9 | 11.7 | 43.9 | 0.9 | 4.1 | 146 | > 10000 |  |  |  |  | 

The remaining compounds from weak to strong by IC50 (EGFR L858R/C797S; [1]), led by results:

Row | IC50 (EGFR L858R/C797S; [1]) [nM] | IC50 (EGFR L858R/C797S; [2]) [nM] | IC50 (EGFR Del19/T790M/C797S; [3]) [nM] | IC50 (EGFR Del19/T790M/C797S; [4]) [nM] | IC50 (EGFR Del19/C797S; [5]) [nM] | IC50 (EGFR Del19/C797S; [6]) [nM] | IC50 (EGFR L858R/T790M/C797S; [7]) [nM] | IC50 (EGFR L858R/T790M/C797S; [8]) [nM] | IC50 (EGFR wildtype (WT); [9]) [nM] | IC50 (EGFR wildtype (WT); IC50 WT (nM), 100 μM ATP) [nM] | IC50 (EGFR L858R/C797S; [10]) [nM] | IC50 (EGFR Del19/T790M/C797S; [11]) [nM] | IC50 (EGFR Del19/C797S; [12]) [nM] | IC50 (EGFR L858R/T790M/C797S; [13]) [nM] | IC50 (EGFR wildtype (WT); [14]) [nM] | Structure (SMILES)
9 | 7.8 |  | 2.9 |  | 6.2 |  | 1.3 |  | 22.9 |  | 100 | 9.9 | 8.5 | 10.5 | > 10000 | O=S(=O)(C1CC1)n1cc(-c2nccc(Nc3cc(N[C@H]4CC[C@@H](O)CC4)c(C#Cc4cccc(NCCN5CCOCC5)c4)cn3)n2)cn1 [Example 173, (1s,4s)-4-((2-((2-(1-(Cyclopropylsulfonyl)-1H-pyrazol-4-yl)pyrimidin-4-yl)amino)-5-((3-((2-morpholinoethyl)amino)phenyl)ethynyl)pyridin-4-yl)amino)cyclohexan-1-ol]
10 | 7.5 | 66.5 | 0.6 | 0.5 | 2 | 2.5 | 0.4 | 0.7 | 17.7 | 4870 |  |  |  |  |  | CC1(CO)CCN(c2cc(Nc3ccnc(-c4cnn(S(=O)(=O)C5CC5)c4)n3)ncc2C#CC2(O)CCCC2)CC1 [Example 177, 1-((6-((2-(1-(Cyclopropylsulfonyl)-1H-pyrazol-4-yl)pyrimidin-4-yl)amino)-4-(4-(hydroxymethyl)-4-methylpiperidin-1-yl)pyridin-3-yl)ethynyl)cyclopentan-1-ol]
11 | 3.2 | 94.1 | 0.4 | 1.5 | 2.3 | 3.5 | 0.2 | 2.1 | 11.7 | > 10000 |  |  |  |  |  | O=S(=O)(C1CC1)n1cc(-c2nccc(Nc3cc(N[C@H]4CC[C@@H](O)CC4)c(C#Cc4ccc(CN5CCOCC5)cn4)cn3)n2)cn1 [Example 184, (1s,4s)-4-((2-((2-(1-(Cyclopropylsulfonyl)-1H-pyrazol-4-yl)pyrimidin-4-yl)amino)-5-((5-(morpholinomethyl)pyridin-2-yl)ethynyl)pyridin-4-yl)amino)cyclohexan-1-ol]
12 | 3 | 27 | 0.3 | 0.3 | 1.1 | 2.3 | 0.2 | 0.3 | 9.5 | 8010 |  |  |  |  |  | O=S(=O)(C1CC1)n1cc(-c2nccc(Nc3cc(N[C@H]4CC[C@@H](O)CC4)c(C#CC4CCOCC4)cn3)n2)cn1 [Example 178, (1s,4s)-4-((2-((2-(1-(Cyclopropylsulfonyl)-1H-pyrazol-4-yl)pyrimidin-4-yl)amino)-5-((tetrahydro-2H-pyran-4-yl)ethynyl)pyridin-4-yl)amino)cyclohexan-1-ol]
13 | 1.5 | 13.4 | 0.4 | 0.5 | 0.8 | 1.9 | 0.2 | 0.3 | 6.2 | 3880 |  |  |  |  |  | CC1(CO)CCN(c2cc(Nc3ccnc(-c4cnn(S(=O)(=O)C5CC5)c4)n3)ncc2C#CC2CCOCC2)CC1 [Example 179, (1-(2-((2-(1-(Cyclopropylsulfonyl)-1H-pyrazol-4-yl)pyrimidin-4-yl)amino)-5-((tetrahydro-2H-pyran-4-yl)ethynyl)pyridin-4-yl)-4-methylpiperidin-4-yl)methanol]
14 | 0.4 | 1.7 | 0.1 | 0.1 | 0.4 | 0.3 | 0.04 | 0.1 | 1.8 | 648 |  |  |  |  |  | CN1CCC(C#Cc2cnc(Nc3ccnc(-c4cnn(S(=O)(=O)C5CC5)c4)n3)cc2N2CCC(C)(CO)CC2)CC1 [Example 182, (1-(2-((2-(1-(Cyclopropylsulfonyl)-1H-pyrazol-4-yl)pyrimidin-4-yl)amino)-5-((1-methylpiperidin-4-yl)ethynyl)pyridin-4-yl)-4-methylpiperidin-4-yl)methanol]
